Data reported in patent publication US20040214760A1, “Inhibition pf protein-phosphatases for the treatment of heart failure” (priority 2001, published 2004).

Key:
PP1 = conditions: heat and acid stable proteins of skeletal muscle extract (Cohen et al., 1998); cited from earlier work
[1] = target: 32P-labelled phosphorylase a

| 32P released from 32P-labelled phosphorylase a [1] [%] | Substance | inhibition of phosphatase (PP1) activity, dependence on phosphorylation state (PP1) |
| --- | --- | --- |
| – | inhibitor-1 | inhibits phosphatase activity only when it has been phosphorylated by cAMP-dependent protein kinase |
| 30 | purified catalytic subunit of PP1 from rabbit skeletal muscle (enzyme) | – |
